Measured values reported in patent EP3426634B1, “DISUBTITUTED AZETIDINES, PYRROLIDINES, PIPERIDINES AND AZEPANES AS INHIBITORS OF MONOAMINE OXIDASE B FOR THE TREATMENT OF NEURODEGENERATIVE DISEASES” (University of Ljubljana, priority 2016, dated 2018).

target: T1, hMAO-B (Homo sapiens, UniProt P27338); test: Inhibition assay using human recombinant MAO-B (fluorimetric Amplex Red assay); format: biochemical; settings: 1 mM p-tyramine, 15 min pre-incubation at 37 °C, pH 7.4, Amplex Red/horseradish peroxidase, read-out: hMAO-B IC50 [nM] ±SEM
T1 construct: purchased Sigma Aldrich M7441; host or cells: baculovirus infected insect cells (BTI-TN-5B1-4)
T1 sequence (P27338 1-520): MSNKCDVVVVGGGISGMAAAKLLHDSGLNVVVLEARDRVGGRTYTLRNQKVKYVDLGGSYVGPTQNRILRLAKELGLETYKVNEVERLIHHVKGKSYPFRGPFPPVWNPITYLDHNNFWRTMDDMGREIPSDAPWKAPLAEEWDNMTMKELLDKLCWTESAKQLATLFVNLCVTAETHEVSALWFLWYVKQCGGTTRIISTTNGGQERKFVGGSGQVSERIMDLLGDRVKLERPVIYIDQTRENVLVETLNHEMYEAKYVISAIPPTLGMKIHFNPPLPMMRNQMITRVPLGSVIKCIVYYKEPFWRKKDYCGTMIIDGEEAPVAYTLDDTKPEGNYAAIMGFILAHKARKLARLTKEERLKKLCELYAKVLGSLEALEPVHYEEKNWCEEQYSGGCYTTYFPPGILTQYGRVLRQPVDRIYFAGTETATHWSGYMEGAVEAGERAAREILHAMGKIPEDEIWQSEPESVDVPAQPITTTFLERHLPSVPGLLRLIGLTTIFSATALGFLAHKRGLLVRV
Method: The inhibitory activity of the compounds was evaluated by their effects on the production of hydrogen peroxide (H2O2) from p-tyramine, a nonspecific substrate for both hMAO isoforms. The production of the H2O2 was detected using Amplex Red reagent in the presence of horseradish peroxidase, where a highly sensitive fluorescent product, resorufin, is produced at stoichiometric amounts. Recombinant human microsomal hMAO enzymes expressed in baculovirus infected insect cells (BTI-TN-5B1-4), horse-radish peroxidase (type II, lyophilized powder), and p-tyramine hydrochloride were purchased from Sigma Aldrich.
The production of resorufin was quantified on the basis of the fluorescence generated (λex= 530 nm, λem = 590 nm) at 37 °C over a period of 20 min, during which time the fluorescence increase linearly. For control experiments, DMSO was used instead of the appropriate dilutions of the compounds in DMSO. To determine the blank value (b), phosphate-buffered solution replaced the enzyme solution. The initial velocities were calculated from the trends obtained, with each measurement carried out in duplicate. The inhibitory potencies are expressed as the residual activities (RA = (vi-b) / (vo-b), where vi is the velocity in the presence of the test compounds, and v0 the control velocity in the presence of DMSO. The IC50 values were obtained by plotting residual enzyme activities against applied inhibitor concentration, with the experimental data fitted to a Hill four parameter equation (Equation (1)) using in-house python script and Gnuplot software. Y = Min + (Max−Min)/(1+10^(∧)((LogIC50−X)×Hillcoefficient)) [formula] where X represent logarithm of inhibitor concentration, and Y the residual activity.
The capacity of the test compounds to react directly with Amplex Red was determined by adding these compounds to a solution containing all of the components except the MAO isoenzyme.

Row | SMILES | IC50 [nM]
1 | C#CCN1CCC(/C=C/c2ccccn2)CC1 | 730 ± 85.6
2 | C#CCN1CCC(=Cc2ccc(F)cc2)CC1 | 48800 ± 3240
3 | C#CCCN1CCC(CCc2ccc(F)cc2)CC1 | 1700 ± 292
4 | C#CCN1CCC(CCc2ccc(Br)cc2)CC1 | 1440 ± 140
5 | C#CCN1CCCC(CCc2ccc(F)cc2)CC1 (stereo not drawn) | 250 ± 42.4
6 | C#CCN1CCC(/C=C/c2ccc(F)cc2)C1 (stereo not drawn) | 17400 ± 2040
7 | C#CCCN1CCC(/C=C/c2ccc(F)cc2)CC1 [drawing 173] | 475 ± 28.6
8 | C#CCCCN1CCC(/C=C/c2ccc(F)cc2)CC1 [drawing 177] | 163 ± 17
9 | C#CCN1CCCC(Cc2ccc(F)cc2)CC1 (stereo not drawn) [drawing 183] | 59.2 ± 6

target: T1, hMAO-B; test: Reversibility assay (100-fold dilution); format: biochemical; settings: hMAO-B at 100-fold final concentration incubated 15 min at 37 °C with inhibitor at 10-fold the IC50, then diluted 100-fold; monitored 30 min
Method: The final concentrations of all of the reagents and MAO-B were the same as in the assay described above. The reaction was monitored for 30 min. Control experiments were carried out in the same manner, where the inhibitor solution was replaced by DMSO.

Row | SMILES | Activity of the enzyme after 100-fold dilution (in percentage ±SD) [percentage]
10 | C#CCCN1CCC(/C=C/c2ccc(F)cc2)CC1 [drawing 194] | 94.91 ±2.52
11 | C#CCCCN1CCC(/C=C/c2ccc(F)cc2)CC1 [drawing 195] | 74.01 ±2.76
12 | C#CCN1CCCC(Cc2ccc(F)cc2)CC1 (stereo not drawn) [drawing 196] | 5.55 ±0.25
